In ChEMBL document CHEMBL1909046, “DrugMatrix in vitro pharmacology data”:

Experiments:
[1] = DRUGMATRIX: GABAA, Flunitrazepam, Central radioligand binding (ligand: [3H] Flunitrazepam); assay type: cell membranes, Rattus norvegicus, Wistar, Brain, Membrane; conditions: Not Active = under 50% inhibition at 10 µM
D(1A) dopamine receptor = D(1A) dopamine receptor (Homo sapiens, UniProt P21728); experiment: DRUGMATRIX: Dopamine D1 radioligand binding (ligand: [3H] SCH-23390); assay type: cell membranes, CHO, Membrane; conditions: Not Active = under 50% inhibition at 10 µM
[2] = molecular target: Aldo-keto reductase family 1 member B1 (Rattus norvegicus, UniProt P07943); experiment: biochemical; assay type: tissue-based, Lens of camera-type eye;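 further: inhibition of aldose reductase enzyme activity, measured with DL-glyceraldehyde as the substrate; in other assays of this panel Not Active means under 50% inhibition at 10 µM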
Thromboxane-A synthase = molecular target: T1, Thromboxane-A synthase (Homo sapiens, UniProt P24557); experiment: biochemical; assay type: tissue-based, Platelet; conditions: platelet;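 further: enzyme inhibition assay with PGH2 supplied as substrate; in other assays of this panel Not Active means under 50% inhibition at 10 µM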
T1 sequence (P24557 whole entry): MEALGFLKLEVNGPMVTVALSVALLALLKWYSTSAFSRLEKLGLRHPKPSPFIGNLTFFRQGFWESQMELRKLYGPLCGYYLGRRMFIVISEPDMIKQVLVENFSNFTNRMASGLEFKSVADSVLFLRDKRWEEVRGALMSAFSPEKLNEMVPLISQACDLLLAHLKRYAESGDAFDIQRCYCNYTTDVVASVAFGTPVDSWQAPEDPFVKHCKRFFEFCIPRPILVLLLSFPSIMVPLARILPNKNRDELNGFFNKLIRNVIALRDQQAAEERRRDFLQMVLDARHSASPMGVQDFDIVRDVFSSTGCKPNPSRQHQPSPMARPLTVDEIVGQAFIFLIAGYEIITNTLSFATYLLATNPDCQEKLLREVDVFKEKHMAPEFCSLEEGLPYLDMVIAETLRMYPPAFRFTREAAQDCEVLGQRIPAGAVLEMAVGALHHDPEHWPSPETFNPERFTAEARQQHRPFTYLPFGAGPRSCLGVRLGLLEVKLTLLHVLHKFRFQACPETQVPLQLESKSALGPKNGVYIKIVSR

[3] = molecular target: T2, Alpha-2A adrenergic receptor (Homo sapiens, UniProt P08913); assay type: cell membranes, Sf9, Membrane; further: in other assays of this panel Not Active means under 50% inhibition at 10 µM
T2 sequence (P08913 whole entry): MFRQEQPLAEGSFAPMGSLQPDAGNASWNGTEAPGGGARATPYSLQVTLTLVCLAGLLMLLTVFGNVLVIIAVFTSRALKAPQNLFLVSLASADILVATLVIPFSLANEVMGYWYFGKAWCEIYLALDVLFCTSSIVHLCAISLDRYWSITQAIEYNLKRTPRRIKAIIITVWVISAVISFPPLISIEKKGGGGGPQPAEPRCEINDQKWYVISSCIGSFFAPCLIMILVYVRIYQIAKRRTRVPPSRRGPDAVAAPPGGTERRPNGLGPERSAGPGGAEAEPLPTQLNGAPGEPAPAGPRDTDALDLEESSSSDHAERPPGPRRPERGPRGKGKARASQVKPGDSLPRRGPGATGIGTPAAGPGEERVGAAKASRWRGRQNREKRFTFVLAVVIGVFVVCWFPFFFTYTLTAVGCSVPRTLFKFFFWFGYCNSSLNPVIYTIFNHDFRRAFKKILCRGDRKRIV

D(1A) dopamine receptor, sequence (P21728 whole entry): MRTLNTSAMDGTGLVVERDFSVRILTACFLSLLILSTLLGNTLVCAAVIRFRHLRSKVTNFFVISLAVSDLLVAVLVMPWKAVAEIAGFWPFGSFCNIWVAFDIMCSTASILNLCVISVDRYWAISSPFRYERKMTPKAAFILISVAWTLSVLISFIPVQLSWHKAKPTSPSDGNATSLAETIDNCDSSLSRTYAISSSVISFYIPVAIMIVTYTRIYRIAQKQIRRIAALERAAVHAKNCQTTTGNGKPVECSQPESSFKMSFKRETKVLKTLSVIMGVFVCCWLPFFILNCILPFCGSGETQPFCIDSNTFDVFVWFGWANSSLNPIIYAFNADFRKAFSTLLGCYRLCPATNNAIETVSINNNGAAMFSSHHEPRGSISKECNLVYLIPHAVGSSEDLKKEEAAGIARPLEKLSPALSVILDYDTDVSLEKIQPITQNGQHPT

| Molecule | IC50 [1] | Ki [1] | IC50 (D(1A) dopamine receptor; cho) | IC50 [2] | IC50 (Thromboxane-A synthase) | IC50 ([3]; sf9) | Ki (D(1A) dopamine receptor; cho) | Ki [2] | Ki (Thromboxane-A synthase) | Ki ([3]; sf9) | IC50 (D(1A) dopamine receptor; read-out: IC50) [µM] | Ki (D(1A) dopamine receptor; read-out: Ki) [µM] | IC50 ([3]; read-out: IC50) [µM] | Ki ([3]; read-out: Ki) [µM] |
| --- | --- | --- | --- | --- | --- | --- | --- | --- | --- | --- | --- | --- | --- | --- |
| Nc1nc(N)c2nc(CNc3ccc(C(=O)N[C@@H](CCC(=O)O)C(=O)O)cc3)cnc2n1 [AMINOPTERIN] | Not Active | Not Active | Not Active | Not Active | Not Active | Not Active |  |  |  |  |  |  |  |  |
| NC(=O)NC(=O)Cc1ccccc1 [PHENACEMIDE] | Not Active | Not Active | Not Active | Not Active | Not Active | Not Active |  |  |  |  |  |  |  |  |
| C[N+](C)(C)CCOC(N)=O.[Cl-] [CARBACHOL] | Not Active | Not Active | Not Active | Not Active | Not Active | Not Active |  |  |  |  |  |  |  |  |
| O=C1c2ccccc2C(=O)C1c1ccccc1 [PHENINDIONE] | Not Active | Not Active | Not Active | Not Active | Not Active | Not Active |  |  |  |  |  |  |  |  |
| CC(C)NCC(O)COc1ccc(CC(N)=O)cc1 (centres undefined) [ATENOLOL] | Not Active | Not Active | Not Active | Not Active | Not Active | Not Active |  |  |  |  |  |  |  |  |
| OC[C@H]1O[C@@H]2O[C@H]3[C@H](O)[C@@H](O)[C@@H](O[C@H]4[C@H](O)[C@@H](O)[C@@H](O[C@H]5[C@H](O)[C@@H](O)[C@@H](O[C@H]6[C@H](O)[C@@H](O)[C@@H](O[C@H]7[C@H](O)[C@@H](O)[C@@H](O[C@H]8[C@H](O)[C@@H](O)[C@@H](O[C@H]1[C@H](O)[C@H]2O)O[C@@H]8CO)O[C@@H]7CO)O[C@@H]6CO)O[C@@H]5CO)O[C@@H]4CO)O[C@@H]3CO [BETADEX] | Not Active | Not Active | Not Active | Not Active | Not Active | Not Active |  |  |  |  |  |  |  |  |
| COc1ccc(Cl)cc1C(=O)NCCc1ccc(S(=O)(=O)NC(=O)NC2CCCCC2)cc1 [GLYBURIDE] | Not Active | Not Active | Not Active | Not Active | Not Active | Not Active |  |  |  |  |  |  |  |  |
| CCN1CCN(C(=O)N[C@@H](C(=O)N[C@@H]2C(=O)N3[C@@H]2SC(C)(C)[C@@H]3C(=O)O)c2ccccc2)C(=O)C1=O [PIPERACILLIN] | Not Active | Not Active | Not Active | Not Active | Not Active | Not Active |  |  |  |  |  |  |  |  |
| CCC1(c2ccccc2)C(=O)NC(=O)NC1=O [PHENOBARBITAL] | Not Active | Not Active | Not Active | Not Active | Not Active | Not Active |  |  |  |  |  |  |  |  |
| O=C(O)CNCP(=O)(O)O [GLYPHOSATE] | Not Active | Not Active | Not Active | Not Active | Not Active | Not Active |  |  |  |  |  |  |  |  |
| OC[C@H]1O[C@@H]2O[C@H]3[C@H](O)[C@@H](O)[C@@H](O[C@H]4[C@H](O)[C@@H](O)[C@@H](O[C@H]5[C@H](O)[C@@H](O)[C@@H](O[C@H]6[C@H](O)[C@@H](O)[C@@H](O[C@H]7[C@H](O)[C@@H](O)[C@@H](O[C@H]1[C@H](O)[C@H]2O)O[C@@H]7CO)O[C@@H]6CO)O[C@@H]5CO)O[C@@H]4CO)O[C@@H]3CO [ALFADEX] | Not Active | Not Active | Not Active | Not Active | Not Active | Not Active |  |  |  |  |  |  |  |  |
| Nc1nc(F)nc2c1ncn2[C@@H]1O[C@H](CO)[C@@H](O)[C@@H]1O [FLUDARABINE] | Not Active | Not Active | Not Active | Not Active | Not Active | Not Active |  |  |  |  |  |  |  |  |
| O=C(O)CO [GLYCOLIC ACID] | Not Active | Not Active | Not Active | Not Active | Not Active | Not Active |  |  |  |  |  |  |  |  |
| O=C(NCCN1CCOCC1)c1ccc(Cl)cc1 [MOCLOBEMIDE] | Not Active | Not Active | Not Active | Not Active | Not Active | Not Active |  |  |  |  |  |  |  |  |
| CARBOXYMETHYLCELLULOSE | Not Active | Not Active | Not Active | Not Active | Not Active | Not Active | Not Active | Not Active | Not Active | Not Active |  |  |  |  |
| COc1ccccc1OCCNCC(O)COc1cccc2[nH]c3ccccc3c12 (centres undefined) [CARVEDILOL] | Not Active | Not Active |  | Not Active | Not Active |  |  |  |  |  | 1.5 | 0.749 | 0.106 | 0.04 |
| NC(N)=Nc1nc(CSCCC(N)=NS(N)(=O)=O)cs1 [FAMOTIDINE] | Not Active | Not Active | Not Active | Not Active | Not Active | Not Active |  |  |  |  |  |  |  |  |
| COc1ccc(C[C@H](N)C(=O)N[C@H]2[C@@H](O)[C@H](n3cnc4c(N(C)C)ncnc43)O[C@@H]2CO)cc1 [PUROMYCIN] | Not Active | Not Active | Not Active | Not Active | Not Active | Not Active |  |  |  |  |  |  |  |  |
